In the METLIN SMRT retention time set (Domingo-Almenara et al. 2019):

Assay: gradient 5% acetonitrile 3 min, to 50% in 2 min, to 85% in 15 min, held 3 min, 100 µL/min
Conditions: column: Zorbax Extend-C18 2.1 x 50 mm; eluents: water / acetonitrile, 0.1% formic acid
Method in brief: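 In both positive and negative ionization mode, a quadrupole time-of-flight mass spectrometer coupled to HPLC analyzed pure standards run in mixtures of ~100 molecules. The Zorbax Extend-C18 column (2.1 × 50 mm, 1.8 μm) was operated at 100 μL/min with water and acetonitrile, each containing 0.1% formic acid. The dead volume was 40 μL and the dwell volume 900 μL. Retention time came from adduct peaks that were computationally picked and individually inspected by hand.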

RP-LC retention time | SMILES
738 s | CCN1C(=O)C2CC3(CCN(C(=O)C4CCCCC4)CC3)CN2C1=O (stereo not given)
995 s | Cc1nc(-c2cn(C(C)C)c3ncccc23)sc1C(=O)NCc1ccccc1
892 s | CCSCCOC(=O)C1=C(C)NC2=C(C(=O)CCC2)C1c1ccc(C(=O)OC)cc1 (stereo not given)
1080 s | O=C(Cn1ccn2nc(-c3ccc(Cl)cc3)cc2c1=O)N1CCCc2ccccc21
715 s | O=C(CSc1nnc(-c2cccnc2)o1)c1ccc2c(c1)OCCO2
780 s | COC(=O)c1cc2c(=O)n(-c3ccc4c(c3)OCCO4)ccc2nc1C
834 s | Cc1nc(-c2cccc(NC(=O)c3cncc(Br)c3)c2)no1
1060 s | Cc1cc2nn(CC(=O)Nc3cccc(Cl)c3)c(=O)n2c(Nc2ccccc2)n1
557 s | O=C(C1CCN(c2cc(N3CCCCC3)ncn2)CC1)N1CCC(N2CCCCC2)CC1
1090 s | COc1ccc(NC(=O)N2CC3CCCN3c3ccccc32)c(OC)c1 (stereo not given)
1290 s | CCn1c(=O)c(C(=O)Nc2cccc(SC)c2)c(O)c2sccc21
630 s | CCCc1nc2cccnc2n1C1CCN(C(=O)COc2ccccc2)C1 (stereo not given)
699 s | CC(=O)N1CCc2cc(N3CC(C(=O)Nc4ccccc4Br)CC3=O)ccc21 (stereo not given)
559 s | Cc1cc(N2CCN(C(=O)c3cc4ccccc4o3)CC2)ncn1
775 s | CC(=O)Nc1cccc(N2CC(C(=O)Nc3cccc(C(F)(F)F)c3)CC2=O)c1 (stereo not given)
1170 s | Cc1cc(N2CCC(C)CC2)n2nc(-c3ccc(Cl)cc3)nc2n1
606 s | Cc1cc(N2CCN(C)CC2)nc2ccc(NC(=S)N3CCN(c4ccc(F)cc4)CC3)cc12
709 s | CCNC(=O)c1ccc2c(c1)CCCN2S(=O)(=O)CC
840 s | CC(C)Cc1ccc(S(=O)(=O)N2CCN(c3ccccn3)CC2)cc1
1040 s | Cc1cc(S(=O)(=O)[C@H]2CS(=O)(=O)C[C@@H]2N2CCN(c3ccccc3F)CC2)ccc1F
985 s | COc1ccc(-n2ccc(=O)c(-c3nc(-c4cccc(Br)c4)no3)n2)cc1
523 s | Cn1cc2c(N3CCCC3)nc(C(=O)NCCN3CCc4ccccc4C3)nc2n1
813 s | O=C(Nc1ccc2c(c1)C(=O)Nc1ccccc1O2)Oc1ccccc1

RP-LC retention time | SMILES
1050 s | O=c1c2ccccc2c(-c2nc(-c3cccnc3)no2)cn1-c1ccc(F)cc1
629 s | COCCCNC(=O)c1ccc2c(c1)nc(C)n2-c1ccc(Br)cc1
685 s | COCCCNC(=O)C1c2cc(OC)c(OC)cc2C(=O)N(C)C1c1ccc(OC)cc1 (stereo not given)
961 s | COc1cccc(-c2noc(Cc3nnc(-c4cccc(C)c4)o3)n2)c1OC
642 s | COc1cc(NC(=O)CSc2ccc(N3CCCC(C(=O)NC4CC4)C3)nn2)cc(OC)c1 (stereo not given)
643 s | COCCN1C(=O)c2ccccc2C(C(=O)NCCCN2CCCC(C)C2)C1c1cccs1 (stereo not given)
805 s | Cc1ccc(C(=O)N2CCC3(CC2)NC(=O)c2cc(C)ccc2N3C)cc1
743 s | CN(C)C(=O)c1ccc2c(c1)N(CC(=O)NC1CCCCC1)C(=O)C1CCCCN21 (stereo not given)
1020 s | CC(C)N1C(=O)C(C)(C(=O)Nc2cccc(F)c2)Oc2cccnc21 (stereo not given)
750 s | COc1ccc(CCNC(=O)CN2C(=O)NC(c3ccc(Cl)cc3)C3=C2COC3=O)cc1OC (stereo not given)
655 s | CCC(=O)Nc1ccc2c(c1)Sc1ncccc1C(=O)N2CC
947 s | CCn1c(=O)n(CC)c2cc(NC3=C(C(=O)Nc4ccccc4)S(=O)(=O)c4ccccc43)ccc21
901 s | CCCc1cc(C2CCCN2C(=O)Nc2ccccc2OC)no1 (stereo not given)
958 s | CCOC(=O)Cn1nc2c(-c3nc(-c4ccc(Cl)cc4)no3)cccn2c1=O
902 s | CCn1cc(-c2nc(C)c(C(=O)NCc3ccc(OC)cc3)s2)c2cccnc21
594 s | CCN(Cc1ccc(F)cc1)Cc1cc(=O)c2cccc(F)c2[nH]1
613 s | NS(=O)(=O)c1ccc(CCNC(=O)Cn2nc3c(N4CCOCC4)nccn3c2=O)cc1
691 s | CCc1ccc(NS(=O)(=O)c2cc3n(c2)CCCNC3=O)cc1
687 s | Cn1nc(COc2ccccc2)c2c1CCN(C(=O)c1ccccn1)C2
661 s | O=C(NCc1ccccc1)Nc1c(-c2ccc(F)cc2)nc2ccccn12
1320 s | CCCN1C(=O)COc2ccc(-c3noc(-c4cccc(C)c4)n3)cc21
601 s | O=C(CCc1nnc2c3cc(-c4ccc(F)cc4)nn3ccn12)NCCc1cccnc1
731 s | CN1C(=O)c2cccn2CC1C(=O)NC1CCCCCC1 (stereo not given)

RP-LC retention time | SMILES
605 s | CC(C)C(=O)Nc1ccc2c(c1)nc(CN1CCN(C(=O)c3ccco3)CC1)n2C
978 s | Cc1nc(-c2csc(S(=O)(=O)N3CCCC(C(=O)Nc4cccc(F)c4)C3)c2)no1 (stereo not given)
1280 s | CCNC(=O)NS(=O)(=O)c1sc(CC(C)C)cc1-c1ccc(Cn2c(-c3ccccc3)nc(OC)c2C=O)cc1
794 s | CCC1(c2ccccc2)NC(=O)N(C)C1=O (stereo not given)
940 s | CCOC(=O)c1cc(S(=O)(=O)N2CCCC2C(=O)Nc2ccc(F)cc2C)cn1C (stereo not given)
630 s | COCC(=O)NC1CCC12CCN(C(=O)NC(C)C)CC2 (stereo not given)
844 s | COc1cccc(CNC(=O)C2(C)CCCN(C(=O)Nc3cc(OC)ccc3OC)C2)c1 (stereo not given)
793 s | O=C(C1CCN(S(=O)(=O)c2cc(-c3noc(C4CC4)n3)cs2)CC1)N1CCOCC1
786 s | Cc1ccc(CNC(=O)C2CCCN2S(=O)(=O)c2cc3c(cc2Cl)NC(=O)CO3)cc1 (stereo not given)
662 s | O=C(O)c1nnn(-c2ccc3c(c2)CCC3)c1-c1ccncc1
722 s | COCc1c(C(=O)O)nnn1-c1ccc(C)cc1F
600 s | Cc1nnc2c(NC(=O)c3cnccn3)cccn12
1090 s | Cc1ccccc1CNC(=O)C1(C)CCCN(C(=O)Nc2cc(Cl)ccc2C)C1 (stereo not given)
605 s | Cc1cc(C)n(-c2ccc(=O)n(CCNC(=O)CCn3cnc4ccccc4c3=O)n2)n1
775 s | COCCN1C(=O)Cc2ccccc2C1C(=O)NCc1ccccc1Cl (stereo not given)
652 s | COc1ccc(C(O)CN2CCN(c3ccc(F)cc3)CC2)cc1 (stereo not given)
579 s | COc1ccc(CC(=O)N2CCn3c(C)nnc3C2)cc1OC
800 s | Cc1ccc(CN2CC(=O)N(c3ccccc3)[C@@H]3CS(=O)(=O)C[C@@H]32)cc1
1070 s | Cn1cc2c3c(cccc31)CN(C(=O)c1ccc(F)c(Cl)c1)CC2
965 s | COc1cccc(C(C#N)N2N=C(C)CC2c2ccccc2)c1O (stereo not given)
836 s | Cc1cccc(NC(=O)N2CCC(n3cnc4c(C)cccc4c3=O)CC2)c1
743 s | Cc1ccc(Nc2c(-c3ccc(N(C)C)cc3)nc3ccccn23)cc1
703 s | CC(C)Cc1ccc(S(=O)(=O)N(CC(=O)N2CCNCC2)CC2CCCO2)cc1 (stereo not given)

RP-LC retention time | SMILES
606 s | Cc1ccsc1C(=O)N1CCc2[nH]cnc2C12CCCCC2
847 s | CCn1c(C)c(CCC(=O)Nc2ccccc2)c(=O)n2nc(-c3ccccc3)nc12
631 s | O=C(NC1CCCCCCC1)C1CCCN(C(=O)c2cc(-c3cccnc3)n[nH]2)C1 (stereo not given)
812 s | Cn1c(=O)sc2cc(S(=O)(=O)N3CCC(C(=O)Nc4ccc5c(c4)OCCO5)CC3)ccc21
709 s | O=S(=O)(c1ccccc1)N1CCC(Cc2nncn2-c2ccccc2)C1 (stereo not given)
780 s | COc1ccc(NC(=O)C2CCN(S(=O)(=O)c3ccc4c(c3)CCCN4C(C)=O)CC2)cc1
612 s | CCc1ccc(NC(=O)N2CCc3nc[nH]c3C2)cc1
628 s | Nc1nnc(-c2ccc(Br)s2)o1
820 s | COc1ccc(C(=O)N2CCC(COc3ccc(C(=O)NC(C)C)cc3)CC2)cc1
826 s | COCCCN1C(=O)c2cc(-c3ccc(OC)cc3)nn2CC1(C)C(=O)NCc1ccccc1 (stereo not given)
965 s | COc1ccc(F)cc1S(=O)(=O)N1CCN(c2c(C)nn(-c3ccccc3)c2C)CC1
988 s | CCCS(=O)(=O)N1CC(=O)N(c2ccc(F)cc2C)C(C)(C(=O)NC2CCCCCC2)C1 (stereo not given)
1060 s | Brc1ccc(OCc2nnc3sc(CCc4ccccc4)nn23)cc1
828 s | COCCNC(=O)c1ccc(-n2nc(Sc3ccc(Cl)cc3)ccc2=O)cc1
939 s | O=C(NC1CCCCC1)N1CCC(c2noc(-c3ccccc3)n2)C1 (stereo not given)
597 s | Oc1ccccc1Nc1ccccn1
736 s | CCCCN(C)C(=O)c1cn2cc(Cl)ccc2n1
795 s | CCCCCn1c(=O)c2ccccc2n(Cc2nc(-c3ccc(C)c(C)c3)no2)c1=O
591 s | Cc1cc(C(=O)NCc2ccccn2)c2cc(Br)ccc2n1
636 s | COc1ccc(C(O)CN2CCN(c3ccc(F)cc3)CC2)cc1OC (stereo not given)

SMILES | RP-LC retention time
CC(C)NC(=O)N1[C@H]2CC[C@@H]1c1cnc(-c3ccc(F)cc3)nc1C2 | 839 s
